Numbers after ± are expanded uncertainties.
Conditions: Liquid, Ebulliometric method (Recirculating still)

In the case of `CC(C)N(C)C` [N,N-dimethylisopropylamine], the “vapor or sublimation pressure” value (339.13 K) is reported as 101.3 ± 0.71 kPa.
In the case of `CC(C)=O` [acetone], the “vapor or sublimation pressure” value (329.56 K) is reported as 101.3 ± 0.66 kPa.
In the case of `CC(=O)N(C)C` [N,N-dimethylethanamide], the “vapor or sublimation pressure” value (439.05 K) is reported as 101.3 ± 0.71 kPa.
For `O=Cc1ccco1` [2-furaldehyde], the “vapor or sublimation pressure” value (435.15 K) was 101.3 ± 0.71 kPa.
